Structures are written as SMILES.

One assay concerns adjuvant arthritis model. Description: Adjuvant Arthritis Test. The class given is in vivo, 7 week old female Lewis rats. Conditions: subcutaneous daily days 8-21. As to the method:
Multiple arthritis resembling human chronic articular rheumatism occurs when tubercule bacillus adjuvant is injected into rats. The antiinflammatory, antirheumatic and bone metabolism improving action of compounds of the present invention were investigated according to the following procedure using this adjuvant arthritis model.
0.1 mg of dried non-viable Mycobacterium butyricum cells were suspended in 0.1 ml of liquid paraffin followed by injection into the skin of the left hind limb of 7 week old female Lewis rats. The compounds obtained in the Examples were dissolved in sterilized distilled water and administered subcutaneously every day for two weeks from the 8th to 21st days after injection of adjuvant. During that time, the volumes of the right and left hind limbs were measured and the swelling rate was calculated according to the following formula: [formula]
Moreover, the swelling inhibition rates were also determined according to the following formula, and those values are shown in Table 1. [formula]
Soft X-ray radiographs were taken of the left and right hind limbs of the animals following sacrifice on day 22. The degree of bone destruction at five locations in the left and right hind limbs was evaluated based on the soft X-ray radiographs scoring those results among 5 ranks. Moreover, the bone destruction inhibition rate was calculated using the following formula, and those values are shown in Table 1. [formula]
Those results that were significant at a level of significance of P<0.001 with respect to a control group administered only sterilized distilled water according to the Student's t-test and Chukey's multiple comparison method were indicated with three asterisks (***), those results that were significant at a level of significance of P<0.01 were indicated with two asterisks (**), and those significant at a level of significance of P<0.05 were indicated with one asterisk (*).
The swelling inhibition rates for Example 7 and Example 33 are the values for day 14 and day 21.

Assay [1] relates to osteoclasts (mouse bone cells), resorption pit formation. Put plainly: Bone resorption pit formation by mouse bone cells (osteoclasts) on ivory, active type-vitamin D3 stimulation. It is filed as cell-based, ICR mice. Conditions: 10 nM active type-vitamin D3, 4 days. An excerpt: The balance between bone formation and bone destruction is disturbed during osteoporosis, with bone destruction considered to be accelerated. Bone destruction is believed to occur due to an increase in the activation and number of osteoclasts. Experiments have been conducted wherein bone resorption was induced with active type-vitanium D3 stimulation using mouse bone cells dispersed on ivory for the experimental model. The bone resorption inhibitory action of compounds of the present invention was measured using this model.
After isolating the femur and tibia from 10-15 day old ICR mice, the bone specimens were prepared into thin sections in α-MEM medium containing 5% fetal bovine serum to prepare an bone cells suspension containing marrow cells and bone matrix. Large fragments of bone were removed with nylon mesh. Viable total cells were counted with trypan blue exclusion test while osteoclasts were stained with tartaric acid-resistantacid phosphatase stain to prepare a cell suspension containing osteoclasts in a proportion of roughly 0.05-0.1%. The ivory was cut into thin sections having a thickness of 150 μm using a low-speed rotary diamond cutter. The thin sections were then punched to a size that matched the size of the wells of a 96 well plate. These ivory fragments were placed in a 96 well plate followed by addition of the cell suspension prepared above so that each well contained 500 osteoclasts. 10 nM active type-vitamin D3 was added as stimulant simultaneous to addition of the drugs of the present invention at concentrations of 10 μM and 100 μM. After culturing the cells for 4 days at 37° C. in an environment of 10% CO2, the resorption pits that formed on the ivory slices were stained with hematoxylin and counted by observing microscopically. The resorption pit formation inhibition rate was then calculated using the formula indicated below. [formula]
The results were statistically processed using the Student's t-test, and those results that were significant at a level of significance of P<0.05 with respect to an active type-vatanium D3 stimulation control group were indicated with one asterisk (*), while those results that were significant at a level of significance of P<0.01 were indicated with two asterisks (**).

Take `CSc1ccc(SC(P(=O)(O)O)P(=O)(O)O)cc1` [Example 2, (4-methylthiophenyl)thiomethanediphosphonic acid]: in the assay on adjuvant arthritis model (Day 22, soft X-ray score of left and right hind limbs), the “Bone Destruction Inhibition Rate with respect to control group, Day 22” value stood at 62.3%. Besides, the “Swelling Inhibition Rate with respect to Control Group, Day 16, Left” value with adjuvant arthritis model (left (adjuvant-injected) hind limb, Day 16) worked out at 96.0%. In the assay with adjuvant arthritis model (left (adjuvant-injected) hind limb, Day 21), the “Swelling Inhibition Rate with respect to Control Group, Day 21, Left” value came out at 122.5%. Further, in the assay on adjuvant arthritis model (right hind limb, Day 16), the “Swelling Inhibition Rate with respect to Control Group, Day 16, Right” value amounted to 9.1%. For the same molecule, in the assay on adjuvant arthritis model (right hind limb, Day 21), the “Swelling Inhibition Rate with respect to Control Group, Day 21, Right” value was 30.6%. Besides, the “resorption pit formation Inhibition Rate with respect to Control Group” value in assay [1] (10 μM compound) is on record as 79.9 ± 3.12%; in assay [1] (100 μM compound) it was 92.6 ± 1.08%.

Source of the values: US5527940A, “Methanediphosphonate derivative, its manufacturing process and its pharmaceutical applications” (Toray Industries, Inc., priority 1991, dated 1996).
